Test results: patent USRE32311E
Converted amounts (≈) assume the structure as drawn.

What was measured:
[1] = test system: Staphylococcus aureus V41; assay: agar-dilution MIC; assay type: cell-based; conditions: Staphylococcus aureus V41, penicillin-resistant strain
Experimental: (§1) In Table VII activity is measured by the minimal inhibitory concentration (MIC), i.e. the lowest concentration of compound at which growth of the microorganism is inhibited by the test compound.

[2] = test system: Staphylococcus aureus X400; assay: agar-dilution MIC; assay type: cell-based; conditions: Staphylococcus aureus X400, methicillin-resistant strain
Experimental: as §1

Streptococcus pyogenes = assay: experimental bacterial infection in mice, ED50; assay type: in vivo; conditions: two doses
[3] = test system: Streptococcus Group D 9960; assay: agar-dilution MIC; assay type: cell-based
[4] = test system: Staphylococcus epidermidis EP11; assay: agar-dilution MIC; assay type: cell-based
Experimental: as §1

[5] = test system: Staphylococcus aureus X1.1; assay: agar-dilution MIC; assay type: cell-based
Staphylococcus aureus = assay: experimental bacterial infection in mice, ED50; assay type: in vivo; conditions: two doses
[6] = test system: Streptococcus Group D X66; assay: agar-dilution MIC; assay type: cell-based
Experimental: as §1

[7] = test system: Staphylococcus epidermidis EP12; assay: agar-dilution MIC; assay type: cell-based
Experimental: as §1

toxicity, LD50 in mice = assay type: in vivo; conditions: administered intravenously

Compound | MIC [1] | MIC [2] | ED50 Streptococcus pyogenes Oral (Streptococcus pyogenes) | ED50 Streptococcus pyogenes Subcutaneous (Streptococcus pyogenes) | MIC [3] | MIC [4] | MIC [5] | ED50 Staphylococcus aureus Subcutaneous (Staphylococcus aureus) | MIC [6] | MIC [7] | LD50 in Mice (toxicity, LD50 in mice)
CCCCCCCCCCCCC(=O)N[C@@H](Cc1ccccc1)C(=O)N[C@@H](Cc1c[nH]c2ccccc12)C(=O)N[C@H](CC(N)=O)C(=O)N[C@@H](CC(=O)O)C(=O)N[C@@H]1C(=O)NCC(=O)N[C@@H](CCCN)C(=O)N[C@@H](CC(=O)O)C(=O)N[C@H](C)C(=O)N[C@@H](CC(=O)O)C(=O)NCC(=O)N[C@H](CO)C(=O)N[C@@H]([C@H](C)CC(=O)O)C(=O)N[C@@H](CC(=O)c2ccccc2N)C(=O)O[C@@H]1C [Compound 21] | 0.5 µg/mL (≈ 0.276 µM) | 2 µg/mL (≈ 1.11 µM) | > 200 mg/kg × 2 | 0.14 mg/kg × 2 | 0.25 µg/mL (≈ 0.138 µM) | 2 µg/mL (≈ 1.11 µM) | 0.5 µg/mL (≈ 0.276 µM) | 0.76 mg/kg × 2 | 1 µg/mL (≈ 0.553 µM) | 2 µg/mL (≈ 1.11 µM) | –
CCCCCC(=O)N[C@@H](Cc1c[nH]c2ccccc12)C(=O)NCCC[C@@H]1NC(=O)CNC(=O)[C@@H](NC(=O)[C@H](CC(=O)O)NC(=O)[C@@H](CC(N)=O)NC(=O)[C@H](Cc2c[nH]c3ccccc23)NC(=O)CCCCCCCCC(C)CC)[C@@H](C)OC(=O)[C@H](CC(=O)c2ccccc2N)NC(=O)[C@H]([C@H](C)CC(=O)O)NC(=O)[C@@H](CO)NC(=O)CNC(=O)[C@H](CC(=O)O)NC(=O)[C@@H](C)NC(=O)[C@H](CC(=O)O)NC1=O (some centres unmarked) [Compound 29] | – | 1 µg/mL (≈ 0.514 µM) | > 200 mg/kg × 2 | – | 32 µg/mL (≈ 16.4 µM) | – | – | – | 8 µg/mL (≈ 4.11 µM) | – | 37.5 mg/kg
CCCCCCCCCCCC(=O)N[C@H](Cc1ccccc1)C(=O)N[C@@H](Cc1c[nH]c2ccccc12)C(=O)N[C@H](CC(N)=O)C(=O)N[C@@H](CC(=O)O)C(=O)N[C@@H]1C(=O)NCC(=O)N[C@@H](CCCN)C(=O)N[C@@H](CC(=O)O)C(=O)N[C@H](C)C(=O)N[C@@H](CC(=O)O)C(=O)NCC(=O)N[C@H](CO)C(=O)N[C@@H]([C@H](C)CC(=O)O)C(=O)N[C@@H](CC(=O)c2ccccc2N)C(=O)O[C@@H]1C [Compound 1] | 0.5 µg/mL (≈ 0.278 µM) | 1 µg/mL (≈ 0.557 µM) | > 200 mg/kg × 2 | – | 0.5 µg/mL (≈ 0.278 µM) | 2 µg/mL (≈ 1.11 µM) | 0.5 µg/mL (≈ 0.278 µM) | – | 1 µg/mL (≈ 0.557 µM) | 1 µg/mL (≈ 0.557 µM) | 250 mg/kg
CCCCCCCCCCC(=O)N[C@@H](Cc1ccccc1)C(=O)N[C@@H](Cc1c[nH]c2ccccc12)C(=O)N[C@H](CC(N)=O)C(=O)N[C@@H](CC(=O)O)C(=O)N[C@@H]1C(=O)NCC(=O)N[C@@H](CCCN)C(=O)N[C@@H](CC(=O)O)C(=O)N[C@H](C)C(=O)N[C@@H](CC(=O)O)C(=O)NCC(=O)N[C@H](CO)C(=O)N[C@@H]([C@H](C)CC(=O)O)C(=O)N[C@@H](CC(=O)c2ccccc2N)C(=O)O[C@@H]1C [Compound 20] | 0.5 µg/mL (≈ 0.281 µM) | 2 µg/mL (≈ 1.12 µM) | > 200 mg/kg × 2 | 0.35 mg/kg × 2 | 2 µg/mL (≈ 1.12 µM) | 2 µg/mL (≈ 1.12 µM) | 0.5 µg/mL (≈ 0.281 µM) | 1.25 mg/kg × 2 | 4 µg/mL (≈ 2.24 µM) | 2 µg/mL (≈ 1.12 µM) | 400 mg/kg
CCCCCCCCCCCC(=O)Nc1ccc(C(=O)N[C@@H](Cc2c[nH]c3ccccc23)C(=O)N[C@H](CC(N)=O)C(=O)N[C@@H](CC(=O)O)C(=O)N[C@@H]2C(=O)NCC(=O)N[C@@H](CCCN)C(=O)N[C@@H](CC(=O)O)C(=O)N[C@H](C)C(=O)N[C@@H](CC(=O)O)C(=O)NCC(=O)N[C@H](CO)C(=O)N[C@@H]([C@H](C)CC(=O)O)C(=O)N[C@@H](CC(=O)c3ccccc3N)C(=O)O[C@@H]2C)cc1 [Compound 4] | – | 8 µg/mL (≈ 4.53 µM) | > 200 mg/kg × 2 | 18.8 mg/kg × 2 | – | – | 4 µg/mL (≈ 2.26 µM) | < 5 mg/kg × 2 | – | – | > 300 mg/kg
